Like-named read-outs stand apart in the source and are kept apart here.
Biological target: T1, PD-1/PD-L1 interaction (Homo sapiens, UniProt Q9NZQ7)
T1 construct: Tag1 or Tag2 (undisclosed kit tag); purchased Cisbio
Assay: Cisbio PD-1/PD-L1 Homogeneous Time-Resolved Fluorescence (HTRF) binding assay
Details: for IC50: read-out: Reported IC50
Excerpt: The ability of compounds of the disclosure to inhibit the PD-1/PD-L1 interaction was investigated using a Cisbio PD-1/PD-L1 Homogeneous Time-Resolved Fluorescence (HTRF) binding assay (https://ca.cisbio.net/human-pd1-pd-l1-biochemical-binding-assay-44666).
With the assay, the interaction between PD-L1 and PD-1 is detected by using anti-Tag1 labeled with Europium (HTRF donor) and anti-Tag2 labeled with XL665 (HTRF acceptor). When the donor and acceptor antibodies are brought into close proximity due to PD-L1 and PD-1 binding, excitation of the donor antibody triggers fluorescence resonance energy transfer (FRET) towards the acceptor antibody, which in turn emits specifically at 665 nm. This specific signal is directly proportional to the extent of PD-1/PD-L1 interaction. Thus, a compound blocking the PD-1/PD-L1 interaction causes a reduction in the HTRF signal.
The assay was carried out in accordance with the product insert.

[1] = Table 10, * n = 7, median, P1 and P2 are different isomers
[2] = Table 10, same result in μM, P1 and P2 are different isomers

T1 sequence (Q9NZQ7 19-238 limits assumed): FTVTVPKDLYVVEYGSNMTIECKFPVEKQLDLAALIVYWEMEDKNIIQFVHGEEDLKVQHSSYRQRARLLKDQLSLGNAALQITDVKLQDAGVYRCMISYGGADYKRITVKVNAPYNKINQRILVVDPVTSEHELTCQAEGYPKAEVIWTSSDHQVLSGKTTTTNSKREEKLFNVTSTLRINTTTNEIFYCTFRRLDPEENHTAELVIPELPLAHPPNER

Structure (SMILES)	IC50 (Table 9) [µM]	IC50 (Table 9, same result in μM) [µM]	other results
O=C(Cc1ccccc1)N1CCN(Cc2csc(NC[C@@H]3CCCN3Cc3ccc(Br)cc3)n2)CC1 [Compound 2463-262]			IC50 (Table 8, Run: Crude): 3.1 µM
O=C(CCc1nc2ccccc2[nH]1)N1CCN(Cc2csc(NC[C@@H]3CCCN3Cc3ccc(Br)cc3)n2)CC1 [Compound 2678-2]			IC50 (Table 8, Run: Pure): 1.9 µM
O=C(CCc1nc2ccccc2[nH]1)N1CCN(Cc2csc(NC[C@@H]3CCCN3Cc3ccc(F)cc3)n2)CC1 [Compound 2678-3]			IC50 (Table 8, Run: Pure): 7 µM
COc1ccc(CN2CCC[C@H]2CNc2nc(CN3CCN(C(=O)CCc4nc5ccccc5[nH]4)CC3)cs2)cc1OC [Compound 2678-5]			IC50 (Table 8, Run: Pure): 9.2 µM
COc1cc(C(=O)N2CCN(Cc3csc(NC[C@@H]4CCCN4Cc4ccc(Br)cc4)n3)CC2)cc(OC)c1OC [Compound 2678-10]	0.051	0.051	IC50 (Table 8, Run: Pure): 0.33 µM; KD/IC50 (Table 11, compound of the disclosure): 330 nM
CCCCCC(=O)N1CCN(Cc2csc(NC[C@@H]3CCCN3CCCc3nc4ccccc4[nH]3)n2)CC1 [Compound 2678-32]			IC50 (Table 8, Run: Pure (70% Pure)): 7.9 µM
Cc1cnc(C(=O)N2CCN(Cc3csc(NC[C@@H]4CCCN4Cc4ccc(F)cc4)n3)CC2)cn1 [Compound 2678-51]			IC50 (Table 8, Run: Pure): 8.7 µM
COc1ccc(CN2CCC[C@H]2CNc2nc(CN3CCN(C(=O)c4cnc(C)cn4)CC3)cs2)cc1OC [Compound 2678-53]			IC50 (Table 8, Run: Pure): 53 µM
CC(Oc1ccccc1)C(=O)N1CCN(Cc2csc(NC[C@@H]3CCCN3Cc3ccc(Br)cc3)n2)CC1 (stereo partly drawn) [Compound 2678-58]			IC50 (Table 8, Run: Pure): 0.8 µM
O=C(c1ccco1)N1CCN(Cc2csc(NC[C@@H]3CCCN3Cc3ccc(Br)cc3)n2)CC1 [Compound 2678-66]			IC50 (Table 8, Run: Pure): 0.87 µM
O=C(c1ccco1)N1CCN(Cc2csc(NC[C@@H]3CCCN3CCCc3nc4ccccc4[nH]3)n2)CC1 [Compound 2678-72]			IC50 (Table 8, Run: Pure (70% Pure)): 11 µM
O=C(CCc1nc2ccccc2[nH]1)N1CCN(Cc2csc(NCC3CC(OCc4ccccc4)CN3Cc3ccc(Br)cc3)n2)CC1 (stereo not drawn) [Compound 2678-78]			IC50 (Table 8, Run: Pure): 1.6 µM
COc1cc(C(=O)N2CCN(Cc3csc(NCC4CC(OCc5ccccc5)CN4Cc4ccc(Br)cc4)n3)CC2)cc(OC)c1OC (stereo not drawn) [Compound 2678-80]			IC50 (Table 8, Run: Pure): 0.5 µM
COc1cc(C(=O)N2CCN(Cc3csc(NC[C@@H]4CCCN4Cc4ccc(C(F)(F)F)cc4)n3)CC2)cc(OC)c1OC [Compound A302]	0.14	0.14	
COc1cc(C(=O)N2CCN(Cc3csc(NC[C@@H]4CCCN4Cc4ccc(C5CC5)cc4)n3)CC2)cc(OC)c1OC [Compound A303]	9.1	9.1	
COc1cc(C(=O)N2CCN(Cc3csc(NC[C@@H]4CCCN4Cc4ccc(C)cc4)n3)CC2)cc(OC)c1OC [Compound A304]	3.5	3.5	
COc1cc(C(=O)N2CCN(Cc3csc(NC[C@@H]4CCCN4Cc4cccc(Br)c4)n3)CC2)cc(OC)c1OC [Compound A305]	36	36	
COc1cc(C(=O)N2CCN(Cc3csc(NC[C@@H]4CCCN4Cc4ccccc4Br)n3)CC2)cc(OC)c1OC [Compound A306]	40	40	
COc1ccc(CN2CCC[C@H]2CNc2nc(CN3CCN(C(=O)c4cc(OC)c(OC)c(OC)c4)CC3)cs2)cc1 [Compound A307]	9.2	9.2	
COc1cc(C(=O)N2CCN(Cc3csc(NC[C@@H]4CCCN4Cc4ccc(S(C)(=O)=O)cc4)n3)CC2)cc(OC)c1OC [Compound A308]	0.69	0.69	
COc1cc(C(=O)N2CCN(Cc3csc(NC[C@@H]4CCCN4Cc4ccncc4)n3)CC2)cc(OC)c1OC [Compound A309]	10.4	10	
COc1cc(C(=O)N2CCN(Cc3csc(NC[C@@H]4CCCN4Cc4cnc(C)s4)n3)CC2)cc(OC)c1OC [Compound A310]	26	26	
COc1cc(C(=O)N2CCN(Cc3csc(NC[C@@H]4CCCN4Cc4nnc(C)s4)n3)CC2)cc(OC)c1OC [Compound A311]	> 50	> 50	
COc1cc(C(=O)N2CCN(Cc3csc(NC[C@@H]4CCCN4Cc4ccncn4)n3)CC2)cc(OC)c1OC [Compound A312]	> 50	> 50	
COc1ccc(C(=O)N2CCN(Cc3csc(NC[C@@H]4CCCN4Cc4ccc(Br)cc4)n3)CC2)cc1 [Compound A401]	1.2	1.2	
COc1ccc(C(=O)N2CCN(Cc3csc(NC[C@@H]4CCCN4Cc4ccc(Br)cc4)n3)CC2)cc1OC [Compound A402]	0.62	0.62	
COc1cccc(C(=O)N2CCN(Cc3csc(NC[C@@H]4CCCN4Cc4ccc(Br)cc4)n3)CC2)c1 [Compound A403]	0.53	0.53	

Structure (SMILES)	IC50 (Table 9) [µM]	IC50 (Table 9, same result in μM) [µM]	other results
O=C(c1ccc2c(c1)OCO2)N1CCN(Cc2csc(NC[C@@H]3CCCN3Cc3ccc(Br)cc3)n2)CC1 [Compound A404]	0.88	0.88	
O=C(c1ccc(=O)[nH]c1)N1CCN(Cc2csc(NC[C@@H]3CCCN3Cc3ccc(Br)cc3)n2)CC1 [Compound A405]	0.247	0.25	
Cn1cnc2cc(C(=O)N3CCN(Cc4csc(NCC5CCCN5Cc5ccc(Br)cc5)n4)CC3)ccc21 (stereo not drawn) [Compound A406]	0.98	0.98	
Cn1ncc2cc(C(=O)N3CCN(Cc4csc(NC[C@@H]5CCCN5Cc5ccc(Br)cc5)n4)CC3)ccc21 [Compound A407]	0.49	0.49	
COc1cc(CN2CCN(Cc3csc(NCC4CCCN4Cc4ccc(Br)cc4)n3)CC2)cc(OC)c1OC (stereo not drawn) [Compound A501]	0.74	0.74	
CC(=O)N1CCN(Cc2csc(NC[C@@H]3CCCN3Cc3ccc(Br)cc3)n2)CC1 [Compound A503]	2.6	0.26	
O=C(C1CC1)N1CCN(Cc2csc(NC[C@@H]3CCCN3Cc3ccc(Br)cc3)n2)CC1 [Compound A504]	2	2	
COc1cc(CN2CCN(Cc3csc(NCC4CCCN4Cc4ccccc4)n3)CC2)cc(OC)c1OC (stereo not drawn) [Compound A505]	> 50	> 50	
COc1cc(CN2CCN(Cc3csc(NCC4CCCN4CC4CC4)n3)CC2)cc(OC)c1OC (stereo not drawn) [Compound A506]	> 50	> 50	
COc1cc(CN2CCN(Cc3csc(NCC4CCCN4C(C)c4ccc(Br)cc4)n3)CC2)cc(OC)c1OC (stereo not drawn) [Compound A601]	0.159	0.16	
COc1cc(CN2CCN(Cc3csc(NCC4CCCN4C(C)c4ccc(Br)cc4)n3)CC2)cc(OC)c1OC (stereo not drawn) [Compound A602]	0.324	0.32	
COc1cc(C(=O)N2CCN([C@H](C)c3csc(NC[C@@H]4CCCN4Cc4ccc(Br)cc4)n3)CC2)cc(OC)c1OC [Compound A603]	0.11	0.11	
COc1cc(C(=O)N2CCN([C@@H](C)c3csc(NC[C@@H]4CCCN4Cc4ccc(Br)cc4)n3)CC2)cc(OC)c1OC [Compound A604]	0.215	0.22	
COc1cc(CN2CCN(Cc3csc(NCC4CCCN4C(=O)c4ccc(Br)cc4)n3)CC2)cc(OC)c1OC (stereo not drawn) [Compound A605]	> 50	> 50	
COc1cc(C(=O)N2CCN(Cc3csc(N(C)C[C@@H]4CCCN4Cc4ccc(Br)cc4)n3)CC2)cc(OC)c1OC [Compound A606]	> 50	> 50	
COc1cc(C(=O)N2C[C@H](C)N(Cc3csc(NC[C@@H]4CCCN4Cc4ccc(Br)cc4)n3)C[C@@H]2C)cc(OC)c1OC [Compound A607]	0.096	0.096	
COc1cc(C(=O)N2C[C@@H](C)N(Cc3csc(NC[C@@H]4CCCN4Cc4ccc(Br)cc4)n3)C[C@H]2C)cc(OC)c1OC [Compound A608]	1.6	1.6	
COc1cc(C(=O)N2CCN(Cc3nsc(NC[C@@H]4CCCN4Cc4ccc(Br)cc4)n3)CC2)cc(OC)c1OC [Compound A702]			IC50 [1]: 0.015 µM; IC50 [2]: 0.015 µM
COc1cc(C(=O)C2CCN(Cc3csc(NC[C@@H]4CCCN4Cc4ccc(Br)cc4)n3)CC2)cc(OC)c1OC [Compound A703]	0.109	0.11	
COc1cc(C(=O)N2CCN(Cc3csc(NC[C@@H]4C[C@@H](O)CN4Cc4ccc(Br)cc4)n3)CC2)cc(OC)c1OC [Compound A704]	0.089	0.089	
COc1cc(C(=O)N2CCN(Cc3csc(NC[C@@H]4C[C@@H](OC)CN4Cc4ccc(Br)cc4)n3)CC2)cc(OC)c1OC [Compound A705]	0.171	0.17	
COc1cc(C(=O)N2CCN(Cc3csc(NC[C@H]4CCCN4Cc4ccc(Br)cc4)n3)CC2)cc(OC)c1OC [Compound A706]	13	13	
COc1cc(C(=O)N2CCN(Cc3csc(NC[C@@H]4CCCN4Cc4ccc(Cl)cc4)n3)CC2)cc(OC)c1OC [Compound B313]	0.205	0.21	
COc1cc(C(=O)N2CCN(Cc3nsc(NC[C@@H]4CCCN4Cc4ccc(Cl)cc4)n3)CC2)cc(OC)c1OC [Compound B314]			IC50 [1]: 0.018 µM; IC50 [2]: 0.018 µM
COc1cc(C(=O)N2CCN(Cc3csc(NC[C@@H]4CCCN4Cc4ccc(C(F)F)cc4)n3)CC2)cc(OC)c1OC [Compound B315]	0.353	0.35	
COc1cc(C(=O)N2CCN(Cc3nsc(NC[C@@H]4CCCN4Cc4ccc(C(F)F)cc4)n3)CC2)cc(OC)c1OC [Compound B316]			IC50 [1]: 0.025 µM; IC50 [2]: 0.025 µM

— patent publication US20230219942A1, “COMPOUNDS COMPRISING A THREE RING CORE AS PD-1/PD-L1 BLOCKERS” (RELIVE THERAPEUTICS INC., priority 2020, published 2023)
